Laboratory results as given in US9474790B2, “Stable, protracted GLP-1/glucagon receptor co-agonists for medical use” (Novo Nordisk A/S, priority 2013, dated 2016).
Numbered stars: 1 amine (or outer) side, 2 acyl side, 3 side chain; on linkers, the order of the positions; unused ones are H or OH. Square brackets hold non-standard residues; d marks the D form. Side chains are listed from the residue outwards. Peptide text beside a SMILES is read from it. * marks the point of attachment. C18 diacid = O=C(O)CCCCCCCCCCCCCCCCC(=O)*; γGlu = O=C(O)[C@H](CCC(=O)[*:2])N[*:1]; Ac4c = NC1(C(=O)O)CCC1; Aib = CC(C)(N)C(=O)O

Biological target: T1, human GLP-1 receptor (Homo sapiens, UniProt P43220)
T1 construct: expressed in transfected cells; host or cells: BHK cells (parent BHKTS13), clone FCW467-12A/KZ10-1, with CRE luciferase
Experiment: GLP-1 receptor binding, 125I-GLP-1 displacement SPA on isolated membranes
Details: displacement of 125I-GLP-1 from membranes; read-out: IC50 GLP-1R
Procedure, shortened: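 SPA displacement of 125I-GLP-1(7-36)NH2 from membranes of BHK cells expressing human GLP-1 receptor, with WGA beads, in 50 mM HEPES, 5 mM EGTA, 5 mM MgCl2, 0.005% Tween 20, pH 7.4. Incubated 2 h at 30°C; IC50 by non-linear regression, run at ≤0.001% or 2.0% final serum albumin.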

T1 sequence (P43220 24-463): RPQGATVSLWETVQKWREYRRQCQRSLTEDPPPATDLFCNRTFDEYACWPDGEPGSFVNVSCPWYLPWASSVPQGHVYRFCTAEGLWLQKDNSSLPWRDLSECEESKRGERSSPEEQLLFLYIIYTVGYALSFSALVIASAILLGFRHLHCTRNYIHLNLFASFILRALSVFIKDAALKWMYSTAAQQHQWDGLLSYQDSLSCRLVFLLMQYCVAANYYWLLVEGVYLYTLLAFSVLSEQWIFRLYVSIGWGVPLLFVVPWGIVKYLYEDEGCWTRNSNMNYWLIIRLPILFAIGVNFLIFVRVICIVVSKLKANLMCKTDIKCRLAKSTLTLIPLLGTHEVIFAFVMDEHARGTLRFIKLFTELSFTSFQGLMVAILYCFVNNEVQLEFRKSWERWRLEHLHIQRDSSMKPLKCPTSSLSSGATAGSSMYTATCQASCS

Compound | IC50 [pM]
CC(C)C[C@H](NC(=O)[C@H](Cc1ccc(O)cc1)NC(=O)[C@H](CCCCN)NC(=O)[C@H](CO)NC(=O)[C@H](CC(C)C)NC(=O)[C@H](CC(=O)O)NC(=O)[C@H](CO)NC(=O)[C@@H](NC(=O)[C@H](Cc1ccccc1)NC(=O)[C@@H](NC(=O)CNC(=O)[C@H](CCC(N)=O)NC(=O)C(C)(C)NC(=O)[C@@H](N)Cc1c[nH]cn1)[C@@H](C)O)[C@@H](C)O)C(=O)N[C@@H](CCC(=O)O)C(=O)N[C@@H](CO)C(=O)N[C@@H](CCCNC(=N)N)C(=O)N[C@@H](CCCNC(=N)N)C(=O)N[C@@H](C)C(=O)N[C@@H](CCCNC(=N)N)C(=O)N[C@@H](CCC(=O)O)C(=O)N[C@@H](Cc1ccccc1)C(=O)N[C@H](C(=O)N[C@@H](CCC(N)=O)C(=O)N[C@@H](Cc1c[nH]c2ccccc12)C(=O)N[C@@H](CC(C)C)C(=O)N[C@@H](CC(C)C)C(=O)N[C@@H](CCCCNC(=O)CC[C@H](NC(=O)CC[C@H](NC(=O)[C@H](CO)NC(=O)[C@H](CCC(=O)O)NC(=O)[C@H](CO)NC(=O)CC[C@H](NC(=O)CC[C@H](NC(=O)CCCCCCCCCCCCCCCCC(=O)O)C(=O)O)C(=O)O)C(=O)O)C(=O)O)C(=O)N[C@H](C(N)=O)[C@@H](C)O)C(C)C [Example 67, N^ε28-[(4S)-4-carboxy-4-[[(4S)-4-carboxy-4-[[(2S)-2-[[(2S)-4-carboxy-2-[[(2S)-2-[[(4S)-4-carboxy-4-[[(4S)-4-carboxy-4-(17-carboxyheptadecanoylamino)butanoyl]amino]butanoyl]amino]-3-hydroxypropanoyl]amino]butanoyl]amino]-3-hydroxypropanoyl]amino]butanoyl]amino]butanoyl]-[Aib2,Leu10,Glu15,Arg20,Glu21,Leu27,Lys28]-Glucagon amide] (H-H[Aib]QGTFTSDLSKYLESRRAREFVQWLLK([γGlu-γGlu-Ser-Glu-Ser-γGlu-γGlu-C18 diacid])T-NH2; N-terminus assumed) | 300
CC(C)C[C@H](NC(=O)[C@H](Cc1ccc(O)cc1)NC(=O)[C@H](CCCCN)NC(=O)[C@H](CO)NC(=O)[C@H](CC(C)C)NC(=O)[C@H](CC(=O)O)NC(=O)[C@H](CO)NC(=O)[C@@H](NC(=O)[C@H](Cc1ccccc1)NC(=O)[C@@H](NC(=O)CNC(=O)[C@H](CCC(N)=O)NC(=O)C1(NC(=O)[C@@H](N)Cc2c[nH]cn2)CCC1)[C@@H](C)O)[C@@H](C)O)C(=O)N[C@@H](CCC(=O)O)C(=O)N[C@@H](CO)C(=O)N[C@@H](CCCCN)C(=O)N[C@@H](CCCNC(=N)N)C(=O)N[C@@H](C)C(=O)N[C@@H](CCCNC(=N)N)C(=O)N[C@@H](CCC(=O)O)C(=O)N[C@@H](Cc1ccccc1)C(=O)N[C@H](C(=O)N[C@@H](CCC(N)=O)C(=O)N[C@@H](Cc1c[nH]c2ccccc12)C(=O)N[C@@H](CC(C)C)C(=O)N[C@@H](CC(C)C)C(=O)N[C@@H](CCCCNC(=O)CC[C@H](NC(=O)CC[C@H](NC(=O)[C@H](CO)NC(=O)[C@H](CCC(=O)O)NC(=O)[C@H](CO)NC(=O)CC[C@H](NC(=O)CC[C@H](NC(=O)CCCCCCCCCCCCCCCCC(=O)O)C(=O)O)C(=O)O)C(=O)O)C(=O)O)C(=O)N[C@H](C(N)=O)[C@@H](C)O)C(C)C [Example 68, N^ε28-[(4S)-4-carboxy-4-[[(4S)-4-carboxy-4-[[(2S)-2-[[(2S)-4-carboxy-2-[[(2S)-2-[[(4S)-4-carboxy-4-[[(4S)-4-carboxy-4-(17-carboxyheptadecanoylamino)butanoyl]amino]butanoyl]amino]-3-hydroxypropanoyl]amino]butanoyl]amino]-3-hydroxypropanoyl]amino]butanoyl]amino]butanoyl]-[Acb2,Leu10,Glu15,Lys17,Arg20,Glu21,Leu27,Lys28]-Glucagon amide] (H-H[Ac4c]QGTFTSDLSKYLESKRAREFVQWLLK([γGlu-γGlu-Ser-Glu-Ser-γGlu-γGlu-C18 diacid])T-NH2; N-terminus assumed) | 300
CC(C)C[C@H](NC(=O)[C@H](Cc1ccc(O)cc1)NC(=O)[C@H](CCCCN)NC(=O)[C@H](CO)NC(=O)[C@H](CC(C)C)NC(=O)[C@H](CC(=O)O)NC(=O)[C@H](CO)NC(=O)[C@@H](NC(=O)[C@H](Cc1ccccc1)NC(=O)[C@@H](NC(=O)CNC(=O)[C@H](CCC(N)=O)NC(=O)C(C)(C)NC(=O)[C@@H](N)Cc1c[nH]cn1)[C@@H](C)O)[C@@H](C)O)C(=O)N[C@@H](CCC(=O)O)C(=O)N[C@@H](CO)C(=O)N[C@@H](CCCCN)C(=O)N[C@@H](CCCNC(=N)N)C(=O)N[C@@H](C)C(=O)N[C@@H](CCCNC(=N)N)C(=O)N[C@@H](CO)C(=O)N[C@@H](Cc1ccccc1)C(=O)N[C@H](C(=O)N[C@@H](CCC(N)=O)C(=O)N[C@@H](Cc1c[nH]c2ccccc12)C(=O)N[C@@H](CC(C)C)C(=O)N[C@@H](CC(C)C)C(=O)N[C@@H](CCCCNC(=O)CC[C@H](NC(=O)CC[C@H](NC(=O)[C@H](CO)NC(=O)[C@H](CCC(=O)O)NC(=O)[C@H](CO)NC(=O)CC[C@H](NC(=O)CC[C@H](NC(=O)CCCCCCCCCCCCCCCCC(=O)O)C(=O)O)C(=O)O)C(=O)O)C(=O)O)C(=O)N[C@H](C(N)=O)[C@@H](C)O)C(C)C [Example 69, N^ε28-[(4S)-4-carboxy-4-[[(4S)-4-carboxy-4-[[(2S)-2-[[(2S)-4-carboxy-2-[[(2S)-2-[[(4S)-4-carboxy-4-[[(4S)-4-carboxy-4-(17-carboxyheptadecanoylamino)butanoyl]amino]butanoyl]amino]-3-hydroxypropanoyl]amino]butanoyl]amino]-3-hydroxypropanoyl]amino]butanoyl]amino]butanoyl]-[Aib2,Leu10,Glu15,Lys17,Arg20,Ser21,Leu27,Lys28]-Glucagon amide] (H-H[Aib]QGTFTSDLSKYLESKRARSFVQWLLK([γGlu-γGlu-Ser-Glu-Ser-γGlu-γGlu-C18 diacid])T-NH2; N-terminus assumed) | 200
